From patent US20230365533A1, “BICYCLOHEPTANE PYRROLIDINE OREXIN RECEPTOR AGONISTS” (MERCK SHARP & DOHME CORP., priority 2021, published 2023)

Target: T1, human OX2R (Homo sapiens, UniProt O43614)
T1 construct: expressed in transfected cells; host or cells: CHO (Chinese hamster ovary) cells, grown under G418 selection
T1 sequence (O43614 1-444): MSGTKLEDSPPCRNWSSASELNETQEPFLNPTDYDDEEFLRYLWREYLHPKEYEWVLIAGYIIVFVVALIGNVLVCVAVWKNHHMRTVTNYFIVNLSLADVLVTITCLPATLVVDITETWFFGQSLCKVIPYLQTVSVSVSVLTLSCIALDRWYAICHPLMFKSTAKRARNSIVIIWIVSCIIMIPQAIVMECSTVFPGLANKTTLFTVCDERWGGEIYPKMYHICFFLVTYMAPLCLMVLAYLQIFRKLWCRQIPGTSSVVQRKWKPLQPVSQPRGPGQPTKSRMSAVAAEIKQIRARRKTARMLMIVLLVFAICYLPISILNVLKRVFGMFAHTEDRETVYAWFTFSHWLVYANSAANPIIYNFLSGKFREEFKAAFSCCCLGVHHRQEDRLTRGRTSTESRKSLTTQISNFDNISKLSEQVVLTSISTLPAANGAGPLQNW
Assay: IPOne (IP-1) orexin receptor agonist assay in CHO cells expressing human OX2R
Assay type: cell-based
Settings: for IC50: IPOne assay, CHO cells expressing human OX2R, 2 hours incubation, read-out: hoX2R_IP IC50
Excerpt: The utility of the compounds in accordance with the present invention as orexin receptor OX1R and/or OX2R agonists may be readily determined without undue experimentation by methodology well known in the art. Both the OX1R and/or OX2R G-coupled protein receptors (GPCRs) couple through the Gaq signaling pathway, which ultimately promotes calcium mobilization via inositol triphosphate (IP3) production. The half-life of IP-3 is relatively short, being rapidly metabolized to inositol monophosphate (IP-1), which can be readily detected using a commercially available assay kit (IP-One; Cisbio; cat #621PAPEC) coupled with a cell line expressing the target receptor(s) of interest. The utility of the compounds in accordance with the present invention as orexin receptor OX1R and/or OX2R agonists may be determined utilizing this assay.
In a typical experiment, the OX1 and OX2 receptor agonist activity is determined in accordance with the following general experimental method. Chinese hamster ovary (CHO) cells expressing human OX1R and/or the human OX2R were grown in Iscove's modified DMEM containing glutaMAX™, 1% G418, 100 U/mL penicillin, 100 μg/mL streptomycin and 10% heat-inactivated qualified fetal bovine serum (FBS). The OX2R cells were seeded at 10,000 cells/well/50 μL and the OX1R cells were seeded at 20,000 cells/well/50 μL into 384-well white tissue culture plates (Greiner; cat #781080). All cell/media reagents were from GIBCO-Invitrogen Corp. The seeded cell plate(s) were incubated at 37° C. with 5% CO2 and 85% humidity for 20-24 hours. On the day of the assay, assay-ready compound plates were prepared using an acoustic liquid handler (ECHO; Labcyte), which dispensed sufficient volume of test compound stock (10 mM in DMSO) or 100% DMSO to prepare 10 point, ½-log dilutions in a final volume of 202.5 nL/well in all test wells of a 384-well diamond plate (Labcyte). Following completion of assay-ready plates, importantly, the next three steps were performed with minimal delay: 1) 20 μl of 1×stimulation buffer was added to the compound plate using a Multidrop Combi (small cassette, Thermo Fisher Scientific cat #24073290); 2) culture medium was removed from the cell plate using the Bluewasher plate washer (gentle spin; BlueCatBio); 3) 14 μl of compound/stimulation buffer mixture was added to the cell plate using a Bravo liquid handler (Agilent) prior to incubating cell plates at 37° C. with 5% CO2 and 85% humidity for 1 or 2 hours (OX1R and OX2R, respectively). During this incubation, IP-one detection reagents were prepared (38:1:1 lysis buffer:D2:AB-cryptate reagents). Six μL of mixed detection reagents were added to the cell plate using a Multidrop Combi (small cassette, Thermo Fisher Scientific cat #24073290) and incubated 60 minutes at room temperature in the dark. Fluorescence signal was detected using an Envision plate reader (Perkin Elmer) [LANCE/DELFIA Dual Enh (Em: APC 665; Ex: Cy5 620)].
For each compound, data were fit to a four parameter logistic fit (ActivityBase software) and the EC50 was reported as the inflection point of the resulting curve. Percent effect for each test compound was determined as the percentage of sample raw value/mean max effect, where the mean max effect was derived from the mean raw value of 32 control wells per assay plate (using Orexin A (cat #003-30) at 1 μM for human OX1R and a reference compound at 1 uM with 100% activity previously established by comparison to Orexin A for human OX2R). The intrinsic orexin receptor agonist activity of a compound which may be used in the present invention may be determined by these assays.

Row | SMILES | IC50 [nM] | Emax (CHO, percent of mean max effect of a reference compound at 1 uM with 100% activity vs Orexin A, human OX2R) [%]
1 | COC(=O)N1[C@H](C)C[C@H](NS(=O)(=O)C(F)(F)F)[C@@H]1CO[C@H]1CC[C@@]2(c3ncc(F)cn3)C[C@H]2C1 [Example 31, methyl (2R,3S,5R)-2-((((1S,3S,6R)-6-(5-fluoropyrimidin-2-yl)bicyclo[4.1.0]heptan-3-yl)oxy)methyl)-5-methyl-3-((trifluoromethyl)sulfonamido)pyrrolidine-1-carboxylate] | 3 | 
2 | CC(C)OC(=O)N1[C@H](C(F)F)C[C@H](NS(C)(=O)=O)[C@@H]1CO[C@H]1CC[C@@]2(c3ncc(F)cn3)C[C@H]2C1 [Example 119, isopropyl (2R,3S,5S)-5-(difluoromethyl)-2-((((1S,3S,6R)-6-(5-fluoropyrimidin-2-yl)bicyclo[4.1.0]heptan-3-yl)oxy)methyl)-3-(methylsulfonamido)pyrrolidine-1-carboxylate] | 1.4 | 
3 | CC(C)OC(=O)N1[C@H](C)C[C@H](NS(=O)(=O)CF)[C@@H]1COC1CCC2(c3ncc(Br)cn3)CC2C1 (stereo partly drawn) [Example 108, isopropyl (2R,3S,5R)-2-(((6-(5-bromopyrimidin-2-yl)bicyclo[4.1.0]heptan-3-yl)oxy)methyl)-3-((fluoromethyl)sulfonamido)-5-methylpyrrolidine-1-carboxylate] | 7.4 | 
4 | C[C@@H]1C[C@H](NS(C)(=O)=O)[C@H](CO[C@H]2CC[C@@]3(c4ncc(F)cn4)C[C@H]3C2)N1C(=O)OCC1CC1(F)F (stereo partly drawn) [Example 59, (2,2-difluorocyclopropyl)methyl (2R,3S,5R)-2-((((1S,3S,6R)-6-(5-fluoropyrimidin-2-yl)bicyclo[4.1.0]heptan-3-yl)oxy)methyl)-5-methyl-3-(methylsulfonamido)pyrrolidine-1-carboxylate] | 0.71 | 
5 | CC(C)OC(=O)N1[C@H](C)C[C@H](NS(=O)(=O)N(C)C)[C@@H]1COC1CCC2(c3ncc(F)cn3)CC2C1 (stereo partly drawn) [Example 164, isopropyl (2R,3S,5R)-3-((N,N-dimethylsulfamoyl)amino)-2-(((6-(5-fluoropyrimidin-2-yl)bicyclo[4.1.0]heptan-3-yl)oxy)methyl)-5-methylpyrrolidine-1-carboxylate] | 2.6 | 
6 | CC(C)OC(=O)N1CCC[C@H](NS(=O)(=O)C(F)F)[C@@H]1CO[C@H]1CC[C@@]2(c3ncc(F)cn3)C[C@H]2C1 [Example 121, isopropyl (2R,3S)-3-((difluoromethyl)sulfonamido)-2-((((1S,3S,6R)-6-(5-fluoropyrimidin-2-yl)bicyclo[4.1.0]heptan-3-yl)oxy)methyl)piperidine-1-carboxylate] | 0.86 | 
7 | CC(C)OC(=O)N1[C@H](C)C[C@H](NS(C)(=O)=O)[C@@H]1CO[C@@H]1CC[C@]2(c3ncc(F)cn3)C[C@@H]2C1 (single isomer, unassigned) [Example 29] | 8 | 
8 | COC(=O)N1[C@H](C)C[C@H](NS(=O)(=O)N(C)C)[C@@H]1COC1CCC2(c3ncc(F)cn3)CC2C1 (single isomer, unassigned) [Example 167] | 575 | 74.4
9 | COC(=O)N1[C@H](C)C[C@H](NS(=O)(=O)C2CC2)[C@@H]1CO[C@H]1CC[C@@]2(c3ncc(F)cn3)C[C@H]2C1 [Example 42, methyl (2R,3S,5R)-3-(cyclopropanesulfonamido)-2-((((1S,3S,6R)-6-(5-fluoropyrimidin-2-yl)bicyclo[4.1.0]heptan-3-yl)oxy)methyl)-5-methylpyrrolidine-1-carboxylate] | 3 | 

More lines, in order of falling IC50, values ahead:

Row | IC50 [nM] | Emax (CHO, percent of mean max effect of a reference compound at 1 uM with 100% activity vs Orexin A, human OX2R) [%] | SMILES
10 | 832 |  | COC(=O)N1[C@H](C)C[C@H](NS(C)(=O)=O)[C@@H]1COC1CCC2(c3nc4c(F)ccc(F)c4s3)CC2C1 (stereo partly drawn) [Example 71, methyl (2R,3S,5R)-2-(((6-(4,7-difluorobenzo[d]thiazol-2-yl)bicyclo[4.1.0]heptan-3-yl)oxy)methyl)-5-methyl-3-(methylsulfonamido)pyrrolidine-1-carboxylate]
11 | 83.7 |  | COC(=O)N1[C@@H]2COC[C@@H]2C(NS(C)(=O)=O)[C@@H]1COC1CCC2(c3ncc(F)cn3)CC2C1 (mixture of isomers) [Example 134, methyl (2R,3aS,6aS)-2-(((6-(5-fluoropyrimidin-2-yl)bicyclo[4.1.0]heptan-3-yl)oxy)methyl)-3-(methylsulfonamido)hexahydro-1H-furo[3,4-b]pyrrole-1-carboxylate]
12 | 46.5 |  | COC(=O)N1[C@H](C)C[C@H](NS(=O)(=O)CC(C)C)[C@@H]1CO[C@H]1CC[C@@]2(c3ncc(F)cn3)C[C@H]2C1 [Example 35, methyl (2R,3S,5R)-2-((((1S,3S,6R)-6-(5-fluoropyrimidin-2-yl)bicyclo[4.1.0]heptan-3-yl)oxy)methyl)-5-methyl-3-((2-methylpropyl)sulfonamido)pyrrolidine-1-carboxylate]
13 | 11.1 |  | COC(=O)N1[C@H](C)C[C@H](NS(C)(=O)=O)[C@@H]1COC1CCC2(c3ncc(Cl)cn3)CC2C1 (stereo partly drawn) [Example 140, methyl (2R,3S,5R)-2-(((6-(5-chloropyrimidin-2-yl)bicyclo[4.1.0]heptan-3-yl)oxy)methyl)-5-methyl-3-(methylsulfonamido)pyrrolidine-1-carboxylate]
14 | 2.1 |  | C[C@@H]1C[C@H](NS(C)(=O)=O)[C@H](CO[C@H]2CC[C@@]3(c4ncc(F)cn4)C[C@H]3C2)N1C(=O)OCC(C)(F)F [Example 64, 2,2-difluoropropyl (2R,3S,5R)-2-((((1S,3S,6R)-6-(5-fluoropyrimidin-2-yl)bicyclo[4.1.0]heptan-3-yl)oxy)methyl)-5-methyl-3-(methylsulfonamido)pyrrolidine-1-carboxylate]
15 | 1.4 |  | COC(=O)N1[C@H](C)C[C@H](NS(=O)(=O)C(F)F)[C@@H]1CO[C@H]1CC[C@@]2(c3ncc(F)cn3)C[C@H]2C1 [Example 48, methyl (2R,3S,5R)-3-((difluoromethyl)sulfonamido)-2-((((1S,3S,6R)-6-(5-fluoropyrimidin-2-yl)bicyclo[4.1.0]heptan-3-yl)oxy)methyl)-5-methylpyrrolidine-1-carboxylate]
16 | 1.4 |  | C[C@@H]1C[C@H](NS(C)(=O)=O)[C@H](CO[C@H]2CC[C@@]3(c4ncc(F)cn4)C[C@H]3C2)N1C(=O)OCCC(F)F [Example 52, 3,3-difluoropropyl (2R,3S,5R)-2-((((1S,3S,6R)-6-(5-fluoropyrimidin-2-yl)bicyclo[4.1.0]heptan-3-yl)oxy)methyl)-5-methyl-3-(methylsulfonamido)pyrrolidine-1-carboxylate]
17 | 1 |  | CC(C)OC(=O)N1[C@H](C)C[C@H](NS(=O)(=O)CF)[C@@H]1COC1CCC2(c3ncc(F)cn3)CC2C1 (stereo partly drawn) [Example 111, isopropyl (2R,3S,5R)-3-((fluoromethyl)sulfonamido)-2-(((6-(5-fluoropyrimidin-2-yl)bicyclo[4.1.0]heptan-3-yl)oxy)methyl)-5-methylpyrrolidine-1-carboxylate]
18 | 0.94 |  | COC(=O)N1[C@H](C)C[C@H](NS(=O)(=O)N(C)C)[C@@H]1COC1CCC2(c3ncccn3)CC2C1 (stereo partly drawn) [Example 6, methyl (2R,3S,5R)-3-((N,N-dimethylsulfamoyl)amino)-5-methyl-2-(((6-(pyrimidin-2-yl)bicyclo[4.1.0]heptan-3-yl)oxy)methyl)pyrrolidine-1-carboxylate]
